{"source": "ChEMBL document CHEMBL5537122", "about": "“Design, synthesis, and biological evaluation of 4-(2-fluorophenoxy)-7-methoxyquinazoline derivatives as dual EGFR/c-Met inhibitors for the treatment of NSCLC” (Eur J Med Chem, 2024)", "key": {"A549 [1]": {"system": "A549", "experiment": "Downregulation of phosphorylated c-Met protein expression human A549 cells overexpressing c-MET incubated for 24 hrs by Western blotting analysis", "type": "functional, cell-based", "settings": "dose 1-10 µM"}, "A549 [2]": {"system": "A549", "experiment": "Inhibition of colony formation in human A549 cells overexpressing c-MET preincubated for 48 hrs followed by media replacement for every 2 days for 14 days by crystal violet staining based microscopic analysis", "type": "functional, cell-based", "settings": "dose 0.25-2 µM"}, "A549 [3]": {"system": "A549", "experiment": "Antiproliferative activity against human A549 cells overexpressing c-Met and EGFR assessed as reduction in cell viability incubated for 72 hrs by MTT assay", "type": "functional, cell-based", "settings": "A549, 72 h"}, "NCI-H1975 [4]": {"system": "NCI-H1975", "experiment": "Antiproliferative activity against human NCI-H1975 cells overexpressing c-Met and EGFR assessed as reduction in cell viability incubated for 72 hrs by MTT assay", "type": "functional, cell-based", "settings": "NCI-H1975, 72 h"}, "A549 [5]": {"system": "A549", "experiment": "Induction in apoptosis in human A549 cells overexpressing c-MET assessed as early apoptotic cells at 1 uM incubated for 24 hrs by Annexin V-FITC/Propidium Iodide staining based flow cytometry analysis (reference value: 7.27 %)", "type": "functional"}, "A549 [6]": {"system": "A549", "experiment": "Induction in apoptosis in human A549 cells overexpressing c-MET assessed as early apoptotic cells at 2.5 uM incubated for 24 hrs by Annexin V-FITC/Propidium Iodide staining based flow cytometry analysis (reference value: 7.27 %)", "type": "functional"}, "NCI-H1975 [7]": {"system": "NCI-H1975", "experiment": "Induction in apoptosis in human NCI-H1975 cells assessed as early apoptotic cells at 1 uM incubated for 24 hrs by Annexin V-FITC/Propidium Iodide staining based flow cytometry analysis (reference value: 2.54 %)", "type": "functional"}, "NCI-H1975 [8]": {"system": "NCI-H1975", "experiment": "Induction in apoptosis in human NCI-H1975 cells assessed as viable cells at 2.5 uM incubated for 24 hrs by Annexin V-FITC/Propidium Iodide staining based flow cytometry analysis (reference value: 91.58 %)", "type": "functional", "settings": "read-out: Activity"}, "NCI-H1975 [9]": {"system": "NCI-H1975", "experiment": "Induction in apoptosis in human NCI-H1975 cells assessed as early apoptotic cells at 2.5 uM incubated for 24 hrs by Annexin V-FITC/Propidium Iodide staining based flow cytometry analysis (reference value: 2.54 %)", "type": "functional"}, "NCI-H1975 [10]": {"system": "NCI-H1975", "experiment": "Induction in apoptosis in human NCI-H1975 cells assessed as late apoptotic cells at 2.5 uM incubated for 24 hrs by Annexin V-FITC/Propidium Iodide staining based flow cytometry analysis (reference value: 4.46 %)", "type": "functional"}, "L02 [11]": {"system": "L02", "experiment": "Induction in apoptosis in human L02 cells assessed as late apoptotic cells at 1 uM incubated for 24 hrs by Annexin V-FITC/Propidium Iodide staining based flow cytometry analysis (reference value: 0.36 %)", "type": "toxicity, cell-based", "settings": "l02, 24 h"}, "L02 [12]": {"system": "L02", "experiment": "Induction in apoptosis in human L02 cells assessed as early apoptotic cells at 2.5 uM incubated for 24 hrs by Annexin V-FITC/Propidium Iodide staining based flow cytometry analysis (reference value: 0.26 %)", "type": "toxicity, cell-based", "settings": "l02, 24 h"}, "A549 [13]": {"system": "A549", "experiment": "Induction of cell cycle arrest in human A549 cells overexpressing c-MET assessed as accumulation of cells at G1/G0 phase at 2.5 uM incubated for 24 hrs by RNase A/propidium iodide staining based flow cytometric analysis (reference value: 49.24 %)", "type": "functional"}, "A549 [14]": {"system": "A549", "experiment": "Induction of cell cycle arrest in human A549 cells overexpressing c-MET assessed as accumulation of cells at S phase at 2.5 uM incubated for 24 hrs by RNase A/propidium iodide staining based flow cytometric analysis (reference value: 37.87 %)", "type": "functional"}, "A549 [15]": {"system": "A549", "experiment": "Antimigratory activity against EGF-induced cell migration in serum starved human A549 cells overexpressing c-MET assessed as increase in width of artificial gap incubated for 24 hrs by wound healing assay", "type": "functional, cell-based", "settings": "dose 1-2.5 µM"}, "NCI-H1975 [16]": {"system": "NCI-H1975", "experiment": "Antimigratory activity against EGF-induced cell migration in serum starved human NCI-H1975 cells assessed as increase in width of artificial gap incubated for 24 hrs by wound healing assay", "type": "functional, cell-based", "settings": "dose 1-2.5 µM"}, "A549 [17]": {"system": "A549", "experiment": "Downregulation of phosphorylated EGFR protein expression level human A549 cells overexpressing c-MET incubated for 24 hrs by Western blotting analysis", "type": "functional, cell-based", "settings": "dose 1-10 µM"}, "[18]": {"system": "Epidermal growth factor receptor (Homo sapiens), P00533 [L858R]", "sequence (P00533 whole entry L858R)": "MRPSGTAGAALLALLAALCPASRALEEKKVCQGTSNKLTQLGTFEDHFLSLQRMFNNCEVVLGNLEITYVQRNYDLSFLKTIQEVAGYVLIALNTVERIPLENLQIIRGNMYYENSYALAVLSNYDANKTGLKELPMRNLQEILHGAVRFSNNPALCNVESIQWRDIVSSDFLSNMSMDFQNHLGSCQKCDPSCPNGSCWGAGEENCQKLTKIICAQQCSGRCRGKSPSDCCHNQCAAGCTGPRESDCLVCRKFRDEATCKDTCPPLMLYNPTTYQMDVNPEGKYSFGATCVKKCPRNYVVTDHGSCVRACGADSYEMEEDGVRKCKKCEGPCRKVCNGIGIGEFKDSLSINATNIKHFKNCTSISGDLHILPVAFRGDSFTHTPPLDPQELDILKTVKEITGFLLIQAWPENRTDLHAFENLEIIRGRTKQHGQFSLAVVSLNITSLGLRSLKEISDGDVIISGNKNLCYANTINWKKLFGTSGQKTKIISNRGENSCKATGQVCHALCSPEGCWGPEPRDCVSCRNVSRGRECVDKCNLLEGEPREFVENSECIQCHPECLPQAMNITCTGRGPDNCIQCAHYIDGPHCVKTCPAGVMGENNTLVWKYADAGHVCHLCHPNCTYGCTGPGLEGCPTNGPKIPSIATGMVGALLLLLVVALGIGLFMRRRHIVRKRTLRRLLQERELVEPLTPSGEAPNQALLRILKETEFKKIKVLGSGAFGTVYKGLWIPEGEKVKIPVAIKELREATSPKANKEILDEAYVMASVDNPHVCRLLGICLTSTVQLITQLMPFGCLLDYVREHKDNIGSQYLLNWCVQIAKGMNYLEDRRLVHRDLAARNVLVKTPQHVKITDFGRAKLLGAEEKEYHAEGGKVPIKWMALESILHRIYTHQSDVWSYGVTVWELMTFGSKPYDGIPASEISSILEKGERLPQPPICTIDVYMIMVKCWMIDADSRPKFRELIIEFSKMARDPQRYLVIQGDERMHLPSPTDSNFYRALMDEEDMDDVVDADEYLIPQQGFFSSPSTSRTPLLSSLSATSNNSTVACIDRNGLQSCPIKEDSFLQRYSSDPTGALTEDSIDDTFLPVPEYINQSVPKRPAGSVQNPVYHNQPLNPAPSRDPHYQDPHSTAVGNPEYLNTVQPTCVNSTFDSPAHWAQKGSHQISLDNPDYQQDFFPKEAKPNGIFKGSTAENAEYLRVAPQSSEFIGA", "experiment": "Inhibition of EGFR L858R mutant (unknown origin) at 10 uM relative to control"}, "[19]": {"biological_target": "Macrophage-stimulating protein receptor (Homo sapiens) (UniProt Q04912)", "experiment": "Inhibition of RON (unknown origin) at 10 uM"}, "[20]": {"biological_target": "Vascular endothelial growth factor receptor 1 (Homo sapiens) (UniProt P17948)", "experiment": "Inhibition of FLT1 (unknown origin) at 10 uM"}, "[21]": {"biological_target": "ALK tyrosine kinase receptor (Homo sapiens) (UniProt Q9UM73)", "experiment": "Inhibition of ALK (unknown origin) at 10 uM"}, "[22]": {"biological_target": "Insulin receptor (Homo sapiens) (UniProt P06213)", "sequence (P06213 28-758 limits assumed)": "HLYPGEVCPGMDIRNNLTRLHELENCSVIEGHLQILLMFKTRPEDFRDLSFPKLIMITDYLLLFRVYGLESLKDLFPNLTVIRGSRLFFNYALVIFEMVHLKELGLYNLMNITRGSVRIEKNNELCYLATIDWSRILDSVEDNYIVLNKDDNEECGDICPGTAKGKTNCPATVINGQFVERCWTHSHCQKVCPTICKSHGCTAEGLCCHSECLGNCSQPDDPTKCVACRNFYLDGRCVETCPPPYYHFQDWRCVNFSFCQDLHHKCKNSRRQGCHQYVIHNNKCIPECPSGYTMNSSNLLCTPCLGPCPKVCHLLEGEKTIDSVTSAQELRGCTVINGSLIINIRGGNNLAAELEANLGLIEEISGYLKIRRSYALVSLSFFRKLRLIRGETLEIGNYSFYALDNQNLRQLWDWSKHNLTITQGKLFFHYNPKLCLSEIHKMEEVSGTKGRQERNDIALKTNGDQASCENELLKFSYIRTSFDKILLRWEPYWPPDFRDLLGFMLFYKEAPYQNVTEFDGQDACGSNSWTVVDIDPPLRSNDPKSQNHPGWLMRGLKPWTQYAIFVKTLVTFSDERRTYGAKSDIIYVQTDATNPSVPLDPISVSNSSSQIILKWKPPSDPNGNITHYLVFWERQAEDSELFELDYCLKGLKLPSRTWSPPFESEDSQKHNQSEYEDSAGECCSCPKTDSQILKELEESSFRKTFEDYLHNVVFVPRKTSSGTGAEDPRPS", "sequence (P06213 763-1382 limits assumed)": "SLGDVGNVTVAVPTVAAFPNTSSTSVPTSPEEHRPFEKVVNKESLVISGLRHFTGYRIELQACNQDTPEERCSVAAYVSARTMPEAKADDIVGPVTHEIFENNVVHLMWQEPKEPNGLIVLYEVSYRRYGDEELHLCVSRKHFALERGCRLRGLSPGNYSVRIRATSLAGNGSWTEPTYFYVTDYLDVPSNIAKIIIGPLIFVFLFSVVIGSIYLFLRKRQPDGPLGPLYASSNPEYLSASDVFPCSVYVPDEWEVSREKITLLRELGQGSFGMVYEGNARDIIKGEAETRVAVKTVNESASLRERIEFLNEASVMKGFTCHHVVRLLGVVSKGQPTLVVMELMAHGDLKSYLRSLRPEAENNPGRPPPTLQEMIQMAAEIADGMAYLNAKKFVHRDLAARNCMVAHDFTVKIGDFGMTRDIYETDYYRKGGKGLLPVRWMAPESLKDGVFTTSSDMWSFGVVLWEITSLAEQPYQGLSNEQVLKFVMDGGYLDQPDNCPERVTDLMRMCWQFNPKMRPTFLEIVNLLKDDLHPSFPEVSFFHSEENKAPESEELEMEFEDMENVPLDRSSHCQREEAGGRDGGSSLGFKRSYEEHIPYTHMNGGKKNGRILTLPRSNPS", "experiment": "Inhibition of INSR (unknown origin) at 10 uM"}, "[23]": {"biological_target": "Fibroblast growth factor receptor 3 (Homo sapiens) (UniProt P22607)", "sequence (P22607 23-806 limits assumed)": "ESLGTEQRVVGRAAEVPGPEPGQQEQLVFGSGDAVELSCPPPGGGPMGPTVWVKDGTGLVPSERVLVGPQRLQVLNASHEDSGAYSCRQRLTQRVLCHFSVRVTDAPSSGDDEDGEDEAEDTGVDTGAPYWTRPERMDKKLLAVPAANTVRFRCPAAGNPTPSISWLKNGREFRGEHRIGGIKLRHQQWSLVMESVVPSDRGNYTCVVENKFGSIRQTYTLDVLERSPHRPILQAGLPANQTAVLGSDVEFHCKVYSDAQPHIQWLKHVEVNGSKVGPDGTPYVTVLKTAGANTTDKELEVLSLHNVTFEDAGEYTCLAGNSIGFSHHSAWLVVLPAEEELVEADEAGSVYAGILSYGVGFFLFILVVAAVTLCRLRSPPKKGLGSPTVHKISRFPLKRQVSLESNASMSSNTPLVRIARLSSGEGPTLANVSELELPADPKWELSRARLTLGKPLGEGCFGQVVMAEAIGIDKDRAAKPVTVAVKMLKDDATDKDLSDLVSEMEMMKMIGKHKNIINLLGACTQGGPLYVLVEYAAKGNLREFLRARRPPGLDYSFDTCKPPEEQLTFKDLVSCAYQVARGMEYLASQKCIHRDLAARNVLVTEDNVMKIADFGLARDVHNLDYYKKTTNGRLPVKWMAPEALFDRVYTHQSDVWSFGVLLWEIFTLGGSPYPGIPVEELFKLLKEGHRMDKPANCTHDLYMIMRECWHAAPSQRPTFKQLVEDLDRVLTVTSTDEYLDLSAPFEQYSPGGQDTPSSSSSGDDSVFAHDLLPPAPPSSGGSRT", "experiment": "Inhibition of FGFR3 (unknown origin) at 10 uM"}, "[24]": {"biological_target": "Fibroblast growth factor receptor 2 (Homo sapiens) (UniProt P21802)", "sequence (P21802 22-821 limits assumed)": "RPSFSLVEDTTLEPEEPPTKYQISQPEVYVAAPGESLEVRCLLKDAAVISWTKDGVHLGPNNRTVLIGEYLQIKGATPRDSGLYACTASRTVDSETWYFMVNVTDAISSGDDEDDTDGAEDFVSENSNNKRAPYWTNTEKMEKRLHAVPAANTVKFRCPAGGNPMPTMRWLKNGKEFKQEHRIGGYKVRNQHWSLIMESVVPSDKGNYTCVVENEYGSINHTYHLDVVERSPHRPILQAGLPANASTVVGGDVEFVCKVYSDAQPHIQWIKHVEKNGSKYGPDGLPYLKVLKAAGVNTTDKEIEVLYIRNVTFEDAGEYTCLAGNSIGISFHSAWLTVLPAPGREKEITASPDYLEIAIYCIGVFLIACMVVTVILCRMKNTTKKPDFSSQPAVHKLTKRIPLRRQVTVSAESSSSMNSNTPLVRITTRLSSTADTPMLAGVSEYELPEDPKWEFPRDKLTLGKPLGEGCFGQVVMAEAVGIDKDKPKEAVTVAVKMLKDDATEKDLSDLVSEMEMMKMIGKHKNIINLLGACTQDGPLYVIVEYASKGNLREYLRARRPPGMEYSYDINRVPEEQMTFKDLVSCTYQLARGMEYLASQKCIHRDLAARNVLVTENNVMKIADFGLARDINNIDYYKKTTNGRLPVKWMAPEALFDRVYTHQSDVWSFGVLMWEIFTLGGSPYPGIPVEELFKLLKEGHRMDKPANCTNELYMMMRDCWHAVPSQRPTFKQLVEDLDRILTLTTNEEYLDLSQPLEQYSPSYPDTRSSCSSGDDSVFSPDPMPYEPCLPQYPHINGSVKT", "experiment": "Inhibition of FGFR2 (unknown origin) at 10 uM"}, "[25]": {"experiment": "Hepatotoxicity in KM mouse assessed as effect on aspartate aminotransferase level at 100 mg/kg, IG qd administered for 7 days by automatic biochemical analyzer", "type": "toxicity, organism-based", "settings": "in vivo, po, 168 h, time 7 day"}, "[26]": {"experiment": "Hepatotoxicity in KM mouse assessed as alkaline phosphatase level at 100 mg/kg, IG qd administered for 7 days by automatic biochemical analyzer", "type": "toxicity, organism-based", "settings": "in vivo, po, 168 h, time 7 day"}, "[27]": {"experiment": "Nephrotoxicity in KM mouse assessed as effect on creatinine level at 100 mg/kg, IG qd administered for 7 days by automatic biochemical analyzer", "type": "toxicity, organism-based", "settings": "in vivo, po, 168 h, time 7 day"}, "[28]": {"experiment": "Acute toxicity in KM mouse assessed as effect on total protein level at 100 mg/kg, IG qd administered for 7 days by automatic biochemical analyzer", "type": "organism-based", "settings": "in vivo, po, 168 h, time 7 day"}, "[29]": {"experiment": "Acute toxicity in KM mouse assessed as cell damage or necrosis in heart at 100 mg/kg, IG qa administered for 7 days and measured on day 8 by hematoxylin and eosin staining based assay", "type": "organism-based", "settings": "in vivo, po, 192 h, time 8 day"}, "[30]": {"experiment": "Acute toxicity in KM mouse assessed as cell damage or necrosis in spleen at 100 mg/kg, IG qa administered for 7 days and measured on day 8 by hematoxylin and eosin staining based assay", "type": "organism-based", "settings": "in vivo, po, 192 h, time 8 day"}, "[31]": {"experiment": "Toxicity in BALB/c nude mouse xenografted with human A549 cells overexpressing c-MET assessed as change in body weight at 40 to 60 mg/kg, IG and measured for 24 days", "type": "organism-based", "settings": "in vivo, po, 576 h, dose 40-60 mg/kg, time 24 day"}, "NCI-H1975 [32]": {"system": "NCI-H1975", "experiment": "Inhibition of colony formation in human NCI-H1975 cells at 1 uM preincubated for 48 hrs followed by media replacement for every 2 days for 14 days by crystal violet staining based microscopic analysis relative to control", "type": "functional"}, "[33]": {"biological_target": "Hepatocyte growth factor receptor (Homo sapiens, UniProt P08581)", "experiment": "Potency index, ratio of foretinib IC50 to test compound IC50 for inhibition of N-terminal GST tagged human recombinant c-Met (956 to end residues) expressed in baculovirus infected Sf9 cells using Poly (4:1 Glu, Tyr) as substrate incubated for 60 mins in presence of ATP by ADP-Glo luminescent assay"}}, "note": "The source made the active and inactive calls. The calls are words filed in the database; no cut-off is given here."}
{"smiles": "C=CC(=O)Nc1cc2c(Oc3ccc(NC(=O)n4c(=O)c(-c5ccccc5)c(C)n4C)cc3F)cccc2cc1OC", "values": [{"measurement": "Activity", "setting": "A549 [1]", "value": "Dose-Dependent Effect"}, {"measurement": "inhibition", "setting": "A549 [2]", "value": "Dose-Dependent Effect"}, {"measurement": "IC50", "setting": "A549 [3]", "value": 1060, "unit": "nM"}, {"measurement": "IC50", "setting": "NCI-H1975 [4]", "value": 1130, "unit": "nM"}, {"measurement": "Activity", "setting": "A549 [5]", "value": 10.4, "unit": "%"}, {"measurement": "Activity", "setting": "A549 [6]", "value": 10.44, "unit": "%"}, {"measurement": "Activity", "setting": "NCI-H1975 [7]", "value": 2.77, "unit": "%"}, {"measurement": "viability at 2.5 µM", "setting": "NCI-H1975 [8]", "value": 85.5, "unit": "%"}, {"measurement": "Activity", "setting": "NCI-H1975 [9]", "value": 3.87, "unit": "%"}, {"measurement": "Activity", "setting": "NCI-H1975 [10]", "value": 8.17, "unit": "%"}, {"measurement": "Activity", "setting": "L02 [11]", "value": 0.28, "unit": "%"}, {"measurement": "Activity", "setting": "L02 [12]", "value": 0.13, "unit": "%"}, {"measurement": "Activity", "setting": "A549 [13]", "value": 57.29, "unit": "%"}, {"measurement": "Activity", "setting": "A549 [14]", "value": 31.41, "unit": "%"}, {"measurement": "Activity", "setting": "A549 [15]", "value": "Dose-Dependent Effect"}, {"measurement": "Activity", "setting": "NCI-H1975 [16]", "value": "Dose-Dependent Effect"}, {"measurement": "Activity", "setting": "A549 [17]", "value": "Dose-Dependent Effect"}, {"measurement": "inhibition", "setting": "[18]", "value": "> 90", "unit": "%"}, {"measurement": "inhibition", "setting": "[19]", "value": "Active"}, {"measurement": "inhibition", "setting": "[20]", "value": "Active"}, {"measurement": "inhibition", "setting": "[21]", "value": "inactive"}, {"measurement": "inhibition", "setting": "[22]", "value": "inactive"}, {"measurement": "inhibition", "setting": "[23]", "value": "inactive"}, {"measurement": "inhibition", "setting": "[24]", "value": "inactive"}, {"measurement": "Activity", "setting": "[25]", "value": "Non-Toxic"}, {"measurement": "Activity", "setting": "[26]", "value": "> 60", "unit": "U/L"}, {"measurement": "Activity", "setting": "[27]", "value": "Non-Toxic"}, {"measurement": "Activity", "setting": "[28]", "value": "Non-Toxic"}, {"measurement": "Activity", "setting": "[29]", "value": "Non-Toxic"}, {"measurement": "Activity", "setting": "[30]", "value": "Non-Toxic"}, {"measurement": "Activity", "setting": "[31]", "value": "Non-Toxic"}, {"measurement": "inhibition at 1 µM", "setting": "NCI-H1975 [32]", "value": "~50", "unit": "%"}, {"measurement": "Ratio IC50", "setting": "[33]", "value": 28}]}
